Read-outs that look alike come from different tables or passages of the source.
Columns and labels:
[1] = Solid stability test (25°C, RH 60%, 30 days); assay type: physicochemical; conditions: 25°C±2°C, relative humidity 60%±2%
Description: Experimental conditions: 25° C.±2° C., relative humidity 60%±2%
Experimental instrument: Agilent 1260 HPLC; chamber for stability test
Experimental method: each compound of the present disclosure was packaged (the inner packaging material was a penicillin bottle; the outer packaging material was a double-layer aluminum foil bag, and a desiccant was added inside and outside the package), placed in the chamber for stability test, at a temperature of 25° C.±2° C. and a relative humidity of 60%±2%. The degradation situation of the compounds for 30 days was examined. The contents of total impurities before and after 30 days of each compound were compared and the results were as follows: […]

[2] = Pharmacokinetics after single intravenous administration in rats (plasma voriconazole); conditions: for T1/2 / AUClast: rat, in vivo, 2.5 mg/kg
Description: Dosage for administration: 2.5 mg/kg (calculated as voriconazole)
Dosing volume for administration: 2.5 ml/kg
Drug concentration: 1 mg/mL (calculated as voriconazole)
Route of administration: tail vein injection Experimental animals: SD rats, SPF grade, weighing 180-220 g, half male and half female; the SD rats were randomized into groups of 6 animals each, three males and three females in each group. Experimental method: Blood samples were collected at different time points after tail vein administration, and the plasma concentrations of voriconazole were measured.

[3] = Solubility test in deionized water (HPLC, external calibration); assay type: physicochemical; conditions: for solubility at 30 min: 25 °C, thermodynamic from solid
Description: Experimental condition: 25±2° C.
Dissolving medium: deionized water
Experimental method: 1 mg voriconazole and appropriate amount of each compound were weighed, placed in 1 ml deionized water separately, shaken vigorously for 30 s every 5 mins for 30 mins.

[4] = test system: Candida albicans ATCC10231; test: Systemic fungal infection in mice, intravenous administration, survival; assay type: in vivo; conditions: ICR mice, tail vein, 5 mg/kg (calculated as voriconazole) once daily for 5 days
Description: ICR mice, weighing 18-22 g, male, provided by the Hubei Experimental Animal Center.
The standard strain Candida albicans was purchased from the American Type Culture Collection, and the strain number was ATCC10231.
Before the experiment, a small amount of Candida albicans was picked from the SDA medium preserved at 4° C. by inoculation circle, and inoculated into 1 ml YPD (Yeast Extract Peptone Dextrose Medium, the same below) culture medium, under shake cultivation at 30° C., 200 rpm, activated for 16 hours to make the fungus in the late stage of the exponential growth phase. Blood cell counting plate was used to count. The concentration of the broth was adjusted to 1*10^3-5*10^3 CFU/ml with RPMI1640 (Roswell Park Memorial Institute 1640, the same below) culture medium. The Candida albicans monoclone on the SDA plate was picked and inoculated into 1 ml YPD medium, cultured at 35° C., 200 rpm for 16 hours to the late exponential growth phase, 1% of which was then inoculated in fresh medium for 6 hours, centrifuged at 1000×g for 5 mins, washed three times with saline until the supernatant was colorless, while hemocytometer was used to count. The cell concentration was adjusted to 5*10^6/ml. The tail vein injection of 0.1 ml/10 g was carried out to cause a systemic fungal infection in mice. The mice were randomized into groups of 10 each. Since voriconazole was insoluble in vehicle (physiological saline), the mice of the voriconazole group in the test were injected a commercially available voriconazole (Pfizer, product lot number Z467001), that is, sulfobutyl ether-β-cyclodextrin used as a solubilizer, while other groups used physiological saline as a solvent. After establishing a systemic fungal infection model in mice for 2 hours, each administration group was administered with 5 mg/kg (calculated as voriconazole) drug in the tail vein, with the volume for administration of 0.1 ml/10 g. The mice in the model group were administered 0.1 ml/10 g of 0.9% sodium chloride solution, once daily, for 5 consecutive days. The death situation of the mice was inspected and the survival time was recorded. After a total of 7 days of observation, all dead mice were treated with fire using ethanol.

SMILES	Content increase of total impurity (25° C., placed for 30 days) [1] [%]	T1/2 [2]	Solubility ([3]; deionized water, 25±2°C) [mg/mL]	further results
CC(OC(=O)OCCS)[n+]1cnn(C[C@](O)(c2ccc(F)cc2F)[C@@H](C)c2ncncc2F)c1 (some centres unmarked) [Compound 16031]	0.97			
CC(OC(=O)N(C)c1ncccc1COC(=O)C[C@H](N)C(=O)O)[n+]1cnn(C[C@](O)(c2ccc(F)cc2F)[C@@H](C)c2ncncc2F)c1.[Cl-] (some centres unmarked) [QR16003]	1.37	similar	>50	
CC(OC(=O)N(C)c1ncccc1COC(=O)CCC(=O)[O-])[n+]1cnn(C[C@](O)(c2ccc(F)cc2F)[C@@H](C)c2ncncc2F)c1.[Cl-].[Na+] (some centres unmarked) [QR16004]			>50	survival rate of mice, day 1 ([4]; day 1): 100%; survival rate of mice, day 2 ([4]; day 2): 100%; survival rate of mice, day 3 ([4]; day 3): 100%; survival rate of mice, day 4 ([4]; day 4): 90%; survival rate of mice, day 5 ([4]; day 5): 90%; survival rate of mice, day 6 ([4]; day 6): 80%; AUClast [2]: 9586 ± 2352 ng·h/mL
CC(OC(=O)N(C)c1ncccc1COC(=O)[C@@H](N)CCCN)[n+]1cnn(C[C@](O)(c2ccc(F)cc2F)[C@@H](C)c2ncncc2F)c1.Cl.Cl.Cl.[I-] (some centres unmarked) [QR16006]	1.14		>50	
CC(OC(=O)N(C)c1ncccc1COC(=O)[C@@H](N)CCCN)[n+]1cnn(C[C@](O)(c2ccc(F)cc2F)[C@@H](C)c2ncncc2F)c1.O=P([O-])(O)O (some centres unmarked) [QR16011]	0.96		>50	
CC(OC(=O)N(C)c1ncccc1COC(=O)[C@@H](N)CCCN)[n+]1cnn(C[C@](O)(c2ccc(F)cc2F)[C@@H](C)c2ncncc2F)c1.O=[N+]([O-])[O-] (some centres unmarked) [QR16012]	0.92		>50	
CC(OC(=O)N(C)c1ncccc1COC(=O)C(N)Cc1ccc(O)cc1)[n+]1cnn(CC(O)(c2ccc(F)cc2F)C(C)c2ncncc2F)c1.Cl.Cl.[Cl-] (centres unmarked) [QR16018]	1.15		>50	
CNCCC[C@H](N)C(=O)OCc1cccnc1N(C)C(=O)OC(C)[n+]1cnn(C[C@](O)(c2ccc(F)cc2F)[C@@H](C)c2ncncc2F)c1.[Cl-] (some centres unmarked) [QR16019]	0.88		>50	
CNCC[C@H](N)C(=O)OCc1cccnc1N(C)C(=O)OC(C)[n+]1cnn(C[C@](O)(c2ccc(F)cc2F)[C@@H](C)c2ncncc2F)c1 (some centres unmarked) [QR16021]	1.14			AUClast ([2]; both, SD, iv): 7056 ± 2532 ng·h/mL; solubility at 30 min ([3]; deionized water, 25±2°C): > 50 mg/mL
CC(OC(=O)OCCCCOP(=O)(O)O)[n+]1cnn(C[C@](O)(c2ccc(F)cc2F)[C@@H](C)c2ncncc2F)c1 (some centres unmarked) [QR16024]	2.84	similar	>50	
CC(OC(=O)OCCCCCOP(=O)(O)O)[n+]1cnn(C[C@](O)(c2ccc(F)cc2F)[C@@H](C)c2ncncc2F)c1 (some centres unmarked) [QR16025]	1.57	similar	>50	
CC(OC(=O)OCCOCCOCCOP(=O)(O)O)[n+]1cnn(C[C@](O)(c2ccc(F)cc2F)[C@@H](C)c2ncncc2F)c1 (some centres unmarked) [QR16033]		similar	>50	
CC(OC(=O)SC[C@H](N)C(=O)O)[n+]1cnn(C[C@](O)(c2ccc(F)cc2F)[C@@H](C)c2ncncc2F)c1 (some centres unmarked) [QR16034]		similar		Solubility [3]: 12.5 mg/mL
CC(OC(=O)NCC(=O)O)[n+]1cnn(C[C@](O)(c2ccc(F)cc2F)[C@@H](C)c2ncncc2F)c1 (some centres unmarked) [QR16038]		similar		
CC(OC(=O)NCC[C@H](N)C(=O)O)[n+]1cnn(C[C@](O)(c2ccc(F)cc2F)[C@@H](C)c2ncncc2F)c1.Cl.[Cl-] (some centres unmarked) [QR16039]	1.22	similar		
C[C@@H](c1ncncc1F)[C@](O)(Cn1c[n+](CC(=O)O)cn1)c1ccc(F)cc1F [QR16043]		similar		
CC(OC(=O)OCCOP(=O)(O)O)[n+]1cnn(C[C@](O)(c2ccc(F)cc2F)[C@@H](C)c2ncncc2F)c1 (some centres unmarked) [QR16046]	0.79			solubility at 30 min ([3]; deionized water, 25±2°C): > 50 mg/mL
CC(OC(=O)N(C)c1ncccc1COC(=O)CN)[n+]1cnn(C[C@](O)(c2ccc(F)cc2F)[C@@H](C)c2ncncc2F)c1.O=S(=O)([O-])O (some centres unmarked) [SF16001]	0.37		>50	
CC(OC(=O)N(C)c1ncccc1COC(=O)[C@@H](N)CCCN)[n+]1cnn(C[C@](O)(c2ccc(F)cc2F)[C@@H](C)c2ncncc2F)c1 (some centres unmarked) [SF16002]	0.67			solubility at 30 min ([3]; deionized water, 25±2°C): > 50 mg/mL
CC(OC(=O)N(C)c1ncccc1COC(=O)[C@@H](N)CCC(N)=O)[n+]1cnn(C[C@](O)(c2ccc(F)cc2F)[C@@H](C)c2ncncc2F)c1.O=S(=O)([O-])O (some centres unmarked) [SF16013]	0.48			
CC(OC(=O)N(C)c1ncccc1COC(=O)[C@@H](N)CC(N)=O)[n+]1cnn(C[C@](O)(c2ccc(F)cc2F)[C@@H](C)c2ncncc2F)c1.O=S(=O)([O-])O (some centres unmarked) [SF16014]	0.36			
CC(OC(=O)N(C)c1ncccc1COC(=O)[C@@H](N)CO)[n+]1cnn(C[C@](O)(c2ccc(F)cc2F)[C@@H](C)c2ncncc2F)c1.O=S(=O)([O-])O (some centres unmarked) [SF16015]	0.32			
CC(OC(=O)N(C)c1ncccc1COC(=O)[C@@H](N)[C@@H](C)O)[n+]1cnn(C[C@](O)(c2ccc(F)cc2F)[C@@H](C)c2ncncc2F)c1.O=S(=O)([O-])O (some centres unmarked) [SF16016]	0.49			
CC(OC(=O)N(C)c1ncccc1COC(=O)[C@@H](N)CCCCN)[n+]1cnn(C[C@](O)(c2ccc(F)cc2F)[C@@H](C)c2ncncc2F)c1 (some centres unmarked) [SF16017]	0.46			
CNCC(=O)OCc1cccnc1N(C)C(=O)OC(C)[n+]1cnn(C[C@](O)(c2ccc(F)cc2F)[C@@H](C)c2ncncc2F)c1.O=S(=O)([O-])O (some centres unmarked) [SF16020]	0.62			
C[C@@H](c1ncncc1F)[C@](O)(Cn1cncn1)c1ccc(F)cc1F [Voriconazole, reference compound]				plasma concentration of voriconazole ([2]; control group of voriconazole dissolved in physiological saline, tail vein injection, SD rats): not detected; solubility at 30 min ([3]; deionized water, 25±2°C): < 1 mg/mL

— patent US11040958B2, “Triazole antimicrobial derivative, pharmaceutical composition and use thereof” (priority 2017, dated 2021)
